Experimental data taken from patent publication US5602100A, “Dermorphin analogs having pharmacological activity” (priority 1988, dated 1997).
Non-standard residues stand in square brackets, D forms with d. Residues, ends and D or L forms follow the SMILES beside them. dNle = CCCC[C@@H](N)C(=O)O; dDab = NCC[C@@H](N)C(=O)O; dNva = CCC[C@@H](N)C(=O)O; Orn = NCCC[C@H](N)C(=O)O; Dab = NCC[C@H](N)C(=O)O; Nva = CCC[C@H](N)C(=O)O

Experiments:
μ-opioid receptor = biological target: T1, μ-opioid receptor (Rattus norvegicus, UniProt P33535); experiment: biochemical; format: binding
T1 construct: displacement of the radioligands from the rat brain membrane preparations; from tissue; host or cells: rat brain membrane preparations
T1 sequence (P33535 whole entry): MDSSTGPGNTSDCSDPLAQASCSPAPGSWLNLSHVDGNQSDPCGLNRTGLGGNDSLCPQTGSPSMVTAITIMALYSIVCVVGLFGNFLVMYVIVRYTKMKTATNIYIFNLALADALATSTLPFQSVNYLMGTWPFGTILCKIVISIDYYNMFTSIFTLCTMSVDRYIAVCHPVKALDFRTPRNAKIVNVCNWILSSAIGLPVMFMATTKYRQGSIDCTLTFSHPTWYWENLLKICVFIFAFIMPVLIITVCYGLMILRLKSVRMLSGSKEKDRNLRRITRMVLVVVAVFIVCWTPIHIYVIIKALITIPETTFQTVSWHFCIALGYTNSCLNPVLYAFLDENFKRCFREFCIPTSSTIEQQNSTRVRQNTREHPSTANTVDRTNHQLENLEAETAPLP

δ-opioid receptor = biological target: T2, δ-opioid receptor (Rattus norvegicus, UniProt P33533); experiment: biochemical; format: binding
T2 construct: displacement of the radioligands from the rat brain membrane preparations; from tissue; host or cells: rat brain membrane preparations
T2 sequence (P33533 whole entry): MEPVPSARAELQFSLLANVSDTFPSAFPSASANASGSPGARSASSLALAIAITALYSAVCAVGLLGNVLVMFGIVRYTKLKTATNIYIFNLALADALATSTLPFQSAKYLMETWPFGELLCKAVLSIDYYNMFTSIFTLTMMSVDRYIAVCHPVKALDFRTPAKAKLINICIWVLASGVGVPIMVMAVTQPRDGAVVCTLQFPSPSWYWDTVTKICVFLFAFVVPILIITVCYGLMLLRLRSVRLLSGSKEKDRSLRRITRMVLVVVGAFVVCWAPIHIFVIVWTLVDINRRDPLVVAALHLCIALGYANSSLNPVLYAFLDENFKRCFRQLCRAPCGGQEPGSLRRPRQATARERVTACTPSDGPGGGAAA

PBQ-induced writhing = experiment: Mouse writhing test (PBQ); format: in vivo; settings: dose reducing the number of writhes by 50%
Experimental: The mouse writhing test detects both peripherally and centrally mediated analgesic effects. The test procedure is described in Siegmund et al., Proc. Soc. Exp. Biol. Med., 95, p. 729 (1957). In this test, a control group of albino mice was injected intraperitoneally with 0.3 ml/20 g body weight of a 0.02% solution of 2-phenyl-1,4-benzoquinone (PBQ). The writhing and contortional movements of the mice over the following 15 minutes were recorded. A second group of mice was given a dose of a synthetic dermorphin analog according to this invention, then allowed to wait a period of time before being administered the PBQ injection. The average number of writhes was then recorded and compared to the control group. The results of this test are expressed as the dosage of peptide that reduces the number of writhes by 50% at a given time interval (referred to as ED50).

[1] = Respiration rate (respiratory depression); format: in vivo, rat; settings: control 142 ± 5
Experimental: In addition to the mouse writhing data, respiratory depression was measured in certain treated mice. Respiratory depression is a commonly observed side effect characteristic of centrally-acting opiates. These reulsts are expressed in Table 5.

hot plate stimulus = experiment: Mouse hot plate test; format: in vivo
Experimental: The mouse hot plate test is an assay which only detects centrally-mediated analgesic effects. This test was carried out using the protocol described in G. Woolfe and A. MacDonald, J. Pharmacol. Exp. Ther., 80, p. 300 ([…]).
Since most of the peptides of the invention were not potent centrally, it was impossible to determine an ED50 value. […] A result is considered insignificant if 30% of mice or lower have responded.

Row | Compound | Ki (μ-opioid receptor) [nM] | Ki^δ /Ki^μ (μ-opioid receptor) | Ki (δ-opioid receptor) [nM] | PBQ (20 min.) ED50 (PBQ-induced writhing) | % of animals showing a 50% increase (hot plate stimulus; dose 40 mg/kg, time 60 min.) [%] | further results
1 | N=C(N)NCCC[C@H](NC(=O)[C@H](Cc1ccccc1)NC(=O)[C@@H](CCCNC(=N)N)NC(=O)[C@@H](N)Cc1ccc(O)cc1)C(N)=O [BCH-1766, H-Tyr-D-Arg-Phe-Arg-NH2] (H-Y[dR]FR-NH2) | 98.8 | 121 | 12000 | – | – | –
2 | CCC[C@H](NC(=O)[C@H](Cc1ccccc1)NC(=O)[C@@H](CCCNC(=N)N)NC(=O)[C@@H](N)Cc1ccc(O)cc1)C(N)=O [BCH-1788, H-Tyr-D-Arg-Phe-Nva-NH2] (H-Y[dR]F[Nva]-NH2) | 11.7 | > 216 | > 2530 | 1.3 mg/kg | 45 | Breaths per min. ([1]; dose 30 mg/kg): 163 ± 9 breaths per min.; Breaths per min. ([1]; dose 100 mg/kg): 125 ± 4 breaths per min.; % of animals showing a 50% increase (hot plate stimulus; dose 100 mg/kg, time 60 min.): 60%
3 | CC[C@@H](C)[C@@H](NC(=O)[C@@H](N)Cc1ccc(O)cc1)C(=O)N[C@@H](Cc1ccccc1)C(=O)N[C@@H](CCCCN)C(N)=O [BCH-2203, H-Tyr-D-Ile-Phe-Lys-NH2] (H-Y[dI]FK-NH2) | 7.49 | > 338 | > 2530 | 0.8 mg/kg | – | % of animals showing a 50% increase (hot plate stimulus; dose 40 mg/kg, time 120 min.): 80%
4 | CC(C)C[C@@H](NC(=O)[C@@H](N)Cc1ccc(O)cc1)C(=O)N[C@@H](Cc1ccccc1)C(=O)N[C@@H](CCCCN)C(N)=O [BCH-2207, H-Tyr-D-Leu-Phe-Lys-NH2] (H-Y[dL]FK-NH2) | 168 | > 15 | > 2530 | – | – | % of animals showing a 50% increase (hot plate stimulus; dose 40 mg/kg, time 30 min.): 20%; % of animals showing a 50% increase (hot plate stimulus; dose 100 mg/kg, time 50 min.): 0%
5 | NCCCC[C@H](NC(=O)[C@H](Cc1ccccc1)NC(=O)[C@@H](CO)NC(=O)[C@@H](N)Cc1ccc(O)cc1)C(N)=O [BCH-2209, H-Tyr-D-Ser-Phe-Lys-NH2] (H-Y[dS]FK-NH2) | 24.1 | > 105 | > 2530 | 2.8 mg/kg | – | % of animals showing a 50% increase (hot plate stimulus; dose 40 mg/kg, time 30 min.): 40%; % of animals showing a 50% increase (hot plate stimulus; dose 100 mg/kg, time 30 min.): 40%
6 | C[C@@H](NC(=O)[C@@H](N)Cc1ccc(O)cc1)C(=O)N[C@@H](Cc1ccccc1)C(=O)N[C@@H](CCCN)C(N)=O [BCH-2219, H-Tyr-D-Ala-Phe-Orn-NH2] (H-Y[dA]F[Orn]-NH2) | 10.7 | 924.51 | 9880 | ~ 1 mg/Kg | – | % of animals showing a 50% increase (hot plate stimulus; dose 40 mg/kg, time 30 min.): 60%
7 | CC[C@@H](C)[C@@H](NC(=O)[C@@H](N)Cc1ccc(O)cc1)C(=O)N[C@@H](Cc1ccccc1)C(=O)N[C@@H](CCCN)C(N)=O [BCH-2456, H-Tyr-D-Ile-Phe-Orn-NH2] (H-Y[dI]F[Orn]-NH2) | 4.49 | 952.35 | 4280 | 0.6 mg/kg | 40 | % of animals showing a 50% increase (hot plate stimulus; dose 100 mg/kg, time 60 min.): 50%
8 | NCCC[C@H](NC(=O)[C@H](Cc1ccccc1)NC(=O)[C@@H](Cc1ccccc1)NC(=O)[C@@H](N)Cc1ccc(O)cc1)C(N)=O [BCH-2457, H-Tyr-D-Phe-Phe-Orn-NH2] (H-Y[dF]F[Orn]-NH2) | 7.39 | 333.37 | 2460 | 1.8 mg/kg | 40 | –
9 | CC(C)[C@@H](NC(=O)[C@@H](N)Cc1ccc(O)cc1)C(=O)N[C@@H](Cc1ccccc1)C(=O)N[C@@H](CCCN)C(N)=O [BCH-2458, H-Tyr-D-Val-Phe-Orn-NH2] (H-Y[dV]F[Orn]-NH2) | 13.3 | 658.27 | 8780 | 1.0 mg/kg | – | % of animals showing a 50% increase (hot plate stimulus; dose 40 mg/kg, time 30 min.): 30%; % of animals showing a 50% increase (hot plate stimulus; dose 100 mg/kg, time 60 min.): 55%
10 | CC(C)C[C@@H](NC(=O)[C@@H](N)Cc1ccc(O)cc1)C(=O)N[C@@H](Cc1ccccc1)C(=O)N[C@@H](CCCN)C(N)=O [BCH-2459, H-Tyr-D-Leu-Phe-Orn-NH2] (H-Y[dL]F[Orn]-NH2) | 77.5 | 240.10 | 18600 | – | – | –
11 | NCCCC[C@H](NC(=O)[C@H](Cc1ccccc1)NC(=O)[C@@H](Cc1ccccc1)NC(=O)[C@@H](N)Cc1ccc(O)cc1)C(N)=O [BCH-2460, H-Tyr-D-Phe-Phe-Lys-NH2] (H-Y[dF]FK-NH2) | 19 | 99.47 | 1900 | ~ 3 mg/Kg | – | –
12 | NCCC[C@H](NC(=O)[C@H](Cc1ccccc1)NC(=O)[C@@H](CO)NC(=O)[C@@H](N)Cc1ccc(O)cc1)C(N)=O [BCH-2461, H-Tyr-D-Ser-Phe-Orn-NH2] (H-Y[dS]F[Orn]-NH2) | 13.2 | 1210.57 | 15900 | 0.7 mg/kg | – | % of animals showing a 50% increase (hot plate stimulus; dose 40 mg/kg, time 30 min.): 50%
13 | NCC[C@H](NC(=O)[C@H](Cc1ccccc1)NC(=O)[C@@H](Cc1ccccc1)NC(=O)[C@@H](N)Cc1ccc(O)cc1)C(N)=O [BCH-2466, H-Tyr-D-Phe-Phe-A2 bu-NH2] (H-Y[dF]F[Dab]-NH2) | 2.81 | 507.59 | 1420 | 0.2 mg/kg | 80 | –
14 | CC(C)[C@@H](NC(=O)[C@@H](N)Cc1ccc(O)cc1)C(=O)N[C@@H](Cc1ccccc1)C(=O)N[C@@H](CCN)C(N)=O [BCH-2467, H-Tyr-D-Val-Phe-A2 bu-NH2] (H-Y[dV]F[Dab]-NH2) | 2.64 | 1113.55 | 6280 | 2 mg/kg | 90 | –
15 | CC[C@@H](C)[C@@H](NC(=O)[C@@H](N)Cc1ccc(O)cc1)C(=O)N[C@@H](Cc1ccccc1)C(=O)N[C@@H](CCN)C(N)=O [BCH-2468, H-Tyr-D-Ile-Phe-A2 bu-NH2] (H-Y[dI]F[Dab]-NH2) | 9.7 | 260.61 | 2530 | 3 to 10 mg/kg | – | –
16 | NCC[C@H](NC(=O)[C@H](Cc1ccccc1)NC(=O)[C@@H](CO)NC(=O)[C@@H](N)Cc1ccc(O)cc1)C(N)=O [BCH-2469, H-Tyr-D-Ser-Phe-A2 bu-NH2] (H-Y[dS]F[Dab]-NH2) | 5.11 | 1071.20 | 5480 | 1.5 mg/kg | 90 | –
17 | C[C@@H](NC(=O)[C@@H](N)Cc1ccc(O)cc1)C(=O)N[C@@H](Cc1ccccc1)C(=O)N[C@@H](CCN)C(N)=O [BCH-2470, H-Tyr-D-Ala-Phe-A2 bu-NH2] (H-Y[dA]F[Dab]-NH2) | 5.91 | 630.58 | 3730 | 0.3 mg/kg | – | % of animals showing a 50% increase (hot plate stimulus; dose 40 mg/kg, time 120 min.): 90%
18 | CCC[C@@H](NC(=O)[C@@H](N)Cc1ccc(O)cc1)C(=O)N[C@@H](Cc1ccccc1)C(=O)N[C@@H](CCN)C(N)=O [BCH-2471, H-Tyr-D-Nva-Phe-A2 bu-NH2] (H-Y[dNva]F[Dab]-NH2) | 0.56 | 790.51 | 441 | 0.2 mg/kg | 100 | –
19 | CCCC[C@@H](NC(=O)[C@@H](N)Cc1ccc(O)cc1)C(=O)N[C@@H](Cc1ccccc1)C(=O)N[C@@H](CCN)C(N)=O [BCH-2472, H-Tyr-D-Nle-Phe-A2 bu-NH2] (H-Y[dNle]F[Dab]-NH2) | 10.2 | 207.88 | 2130 | 0.8 mg/kg | 60 | –
20 | CC(C)C[C@@H](NC(=O)[C@@H](N)Cc1ccc(O)cc1)C(=O)N[C@@H](Cc1ccccc1)C(=O)N[C@@H](CCN)C(N)=O [BCH-2474, H-Tyr-D-Leu-Phe-A2 bu-NH2] (H-Y[dL]F[Dab]-NH2) | 69.8 | 186.98 | 13100 | > 10 mg/kg | – | –
21 | NCCC[C@H](NC(=O)[C@H](Cc1ccccc1)NC(=O)[C@@H](CCN)NC(=O)[C@@H](N)Cc1ccc(O)cc1)C(N)=O [BCH-2580, H-Tyr-D-A2 bu-Phe-Orn-NH2] (H-Y[dDab]F[Orn]-NH2) | – | 411.98 | – | 1.2 mg/kg | 80 | –
22 | N=C(N)NCCC[C@@H](NC(=O)[C@@H](N)Cc1ccc(O)cc1)C(=O)N[C@@H](Cc1ccccc1)C(=O)N[C@@H](Cc1ccccc1)C(N)=O [BCH-2687, H-Tyr-D-Arg-Phe-Phe-NH2] (H-Y[dR]FF-NH2) | – | – | – | – | 70 | –
23 | N=C(N)NCCC[C@@H](NC(=O)[C@@H](N)Cc1ccc(O)cc1)C(=O)N[C@@H](Cc1ccccc1)C(=O)N[C@@H](CO)C(N)=O [BCH-2688, H-Tyr-D-Arg-Phe-Ser-NH2] (H-Y[dR]FS-NH2) | – | – | – | – | 100 | –
24 | CC(C)C[C@H](NC(=O)[C@H](Cc1ccccc1)NC(=O)CNC(=O)[C@@H](CO)NC(=O)[C@@H](N)Cc1ccc(O)cc1)C(=O)N[C@H](C(=O)O)[C@@H](C)O [[^3 H]DSLET, reference compound] | – | – | – | – | – | Kd (δ-opioid receptor; read-out: Dissociation constant of radioligand): 2.6 nM
